Assay results taken from US20120053122A1, “METHOD FOR THE PROPHYLAXIS OR TREATMENT OF FLUSHING” (priority 2009, published 2012).
Square brackets hold non-standard residues; d marks the D form. Peptide text beside a SMILES is read from it. dPhe(4-Cl) = N[C@H](Cc1ccc(Cl)cc1)C(=O)O; d2Nal = N[C@H](Cc1ccc2ccccc2c1)C(=O)O; dCit = NC(=O)NCCC[C@@H](N)C(=O)O; d3Pal = N[C@H](Cc1cccnc1)C(=O)O

Key:
Format in all cases: in vivo, women
PMP flushing [1] = assay: Short-term in-hospital response: flush diary (frequency, duration, severity, sweating)
Procedure: Three women who were referred for treatment of severe PMP flushing were included in the pilot study, after signing an informed consent. All three had frequent and severe flushing, during daytime as well as during the night. Sleep was often disturbed by flushes and sweat attacks, often forcing a change of clothes and/or bed linen. Physical examination in these patients was unremarkable and other causes of flushing were excluded. Thyroid function was normal, 24 hour urinary hydroxy-indol-acetic acid and catecholamines were within the reference range, serum tryptase was normal, and none used any medication known to induce flushing.
(§1) To avoid intermittent and variable interference of external factors as much as possible, and to guarantee a constant ambient temperature all subjects were hospitalized for further study. They remained ambulatory during that period. They were instructed to record the following flush characteristics in a diary: time of onset, duration in minutes, flush severity on a scale of 0-10, and the degree of associated sweat attacks: 0=no sweating; 1=mild sweating, i.e. only moist skin, no visible sweat drops; 2=moderate sweating, i.e. visible sweat drops; 3=severe sweating, i.e. totally wet, change of clothes necessary. Blood samples for measurement of serum LH, FSH, estradiol, SHBG and albumin were taken each day at 08.00 h and 20.00 h.

[2] = system: serum LH, FSH, estradiol, SHBG and albumin; assay: Short-term in-hospital response: serum LH, FSH, estradiol, SHBG and albumin
Description: as §1, with “h. LH, FSH and estradiol were measured by electrochemiluminescene immunoassays (Roche Diagnostics, Mannheim, Germany). Normal ranges in PMP women: LH>10 U/L, FSH>30 U/L, estradiol<100 nmol/L. SHBG was measured by chemilumiescent enzyme immunoassay (DPC, Los Angeles, Calif., USA, normal range in PMP women: 18-144 nmol/L)).” for “h.”

PMP flushing [3] = assay: Long-term treatment, outpatient setting: flush recording
Description: To avoid intermittent and variable interference of external factors as much as possible, and to guarantee a constant ambient temperature all subjects were hospitalized for further study. They remained ambulatory during that period. They were instructed to record the following flush characteristics in a diary: time of onset, duration in minutes, flush severity on a scale of 0-10, and the degree of associated sweat attacks: 0=no sweating; 1=mild sweating, i.e. only moist skin, no visible sweat drops; 2=moderate sweating, i.e. visible sweat drops; 3=severe sweating, i.e. totally wet, change of clothes necessary. Blood samples for measurement of serum LH, FSH, estradiol, SHBG and albumin were taken each day at 08.00 h and 20.00 h. To evaluate whether responsiveness was maintained in the long run, Cetrorelix treatment was studied for a prolonged period in an outpatient setting. Cetrorelix was started after a baseline observation period of 3-6 days. In the first two patients the starting dose was of 250 μg once a day, injected at about 8.30-9.00 h, just after the morning blood sampling. In the third patient the starting dose was 500 μg once a day. Blood was sampled only in the morning, between 8.00 en 9.00 h, every day during the first 4 days, thereafter every 3 days for a brief period, and later on once a week.

serum LH and FSH = assay: Long-term treatment, outpatient setting: serum LH and FSH
Procedure: LH, FSH and estradiol were measured by electrochemiluminescene immunoassays (Roche Diagnostics, Mannheim, Germany). Normal ranges in PMP women: LH>10 U/L, FSH>30 U/L, estradiol<100 nmol/L. SHBG was measured by chemilumiescent enzyme immunoassay (DPC, Los Angeles, Calif., USA, normal range in PMP women: 18-144 nmol/L)). To evaluate whether responsiveness was maintained in the long run, Cetrorelix treatment was studied for a prolonged period in an outpatient setting. Cetrorelix was started after a baseline observation period of 3-6 days. In the first two patients the starting dose was of 250 μg once a day, injected at about 8.30-9.00 h, just after the morning blood sampling. In the third patient the starting dose was 500 μg once a day. Blood was sampled only in the morning, between 8.00 en 9.00 h, every day during the first 4 days, thereafter every 3 days for a brief period, and later on once a week.

[4] = Patient 1, 250 μg once a day for five days
[5] = Patient 1, 250 μg once a day, within 24 hours
[6] = Patient 2, 250 μg once a day, 4th day of treatment
[7] = Patient 3, 250 μg once a day, after the first 5 days
[8] = Patient 3, 250 μg once a day at 08.30 h
[9] = Patient 1, discontinued after 4 months
[10] = Patient 1, outpatient, 250 μg once a day, after two weeks
[11] = Patient 1, outpatient, 250 μg once a day, if flushes occurred
[12] = Patient 2, outpatient, 250 μg once a day, over the following weeks
[13] = Patient 2, outpatient, 250 μg twice a day after the third month
[14] = Patient 2, outpatient, 250 μg twice a day, eventually
[15] = Patient 1, outpatient, 250 μg once a day
[16] = Patient 3, outpatient, 500 μg once a day at 20.00 h, first 4 weeks

CC(=O)N[C@H](Cc1ccc2ccccc2c1)C(=O)N[C@H](Cc1ccc(Cl)cc1)C(=O)N[C@H](Cc1cccnc1)C(=O)N[C@@H](CO)C(=O)N[C@@H](Cc1ccc(O)cc1)C(=O)N[C@H](CCCNC(N)=O)C(=O)N[C@@H](CC(C)C)C(=O)N[C@@H](CCCNC(=N)N)C(=O)N1CCC[C@H]1C(=O)N[C@H](C)C(N)=O [Cetrorelix] (Ac-[d2Nal][dPhe(4-Cl)][d3Pal]SY[dCit]LRP[dA]-NH2)
Daytime flush duration (PMP flushing [1]; [4]): did not change appreciably
Nighttime flush duration (PMP flushing [1]; [4]): tended to decrease
Flush severity (PMP flushing [1]; Patient 1, 250 μg once a day for five days, in particular during daytime): weak trend to decrease
Decrease in daytime flush frequency (PMP flushing [1]; [5]): 60-70%
Decrease in nighttime flushing (PMP flushing [1]; [5]): 60-70%
Decrease in total flush frequency (PMP flushing [1]; [5]): 60-70%
Time for flush frequency to rise again to pre-treatment levels after discontinuation (PMP flushing [1]; Patient 1, short-term): ≤ 48 h
Daytime flush duration (PMP flushing [1]; Patient 2, 250 μg once a day): tended to decrease slightly
Daytime flush severity (PMP flushing [1]; Patient 2, 250 μg once a day): did not change significantly
Flush sweating (PMP flushing [1]; Patient 2, 250 μg once a day): did not change significantly
Change in daytime flush frequency (PMP flushing [1]; [6]): −80%
Daytime flush frequency (PMP flushing [1]; [6]): 4 flushes per day
Nighttime flushing (PMP flushing [1]; Patient 2, 250 μg once a day, after the first night): completely disappeared
Change in nighttime flushing (PMP flushing [1]; Patient 2, 250 μg once a day, first night of treatment): −80%
Nighttime flushing (PMP flushing [1]; Patient 2, 250 μg once a day, first night of treatment, from 5): 1
Change in daytime flush frequency (PMP flushing [1]; Patient 2, 250 μg once a day, within one day): −60%
Daytime flush frequency (PMP flushing [1]; Patient 2, 250 μg once a day, within one day, from 20): 8
Flush frequency after discontinuation (PMP flushing [1]; Patient 2, within the two days after discontinuation): did not reach pre-treatment levels
Change in daytime flushes (PMP flushing [1]; [7]): −25%
Change in total flushes (PMP flushing [1]; [7]): −25%
Nighttime flushing (PMP flushing [1]; [7]): did not change significantly
Nighttime flushing (PMP flushing [1]; Patient 3, 250 μg twice a day): started to decrease
Decrease in total daily flush frequency (PMP flushing [1]; Patient 3, after 250 μg once then twice a day, one day after discontinuation): 80%
Flush frequency after discontinuation (PMP flushing [1]; Patient 3, six days after discontinuation): still markedly lower than before treatment
Time at which FSH reached its nadir ([2]; Patient 1, 250 μg once a day): 3 days
Serum SHBG level [2, 4]: did not change
Serum albumin level [2, 4]: did not change
Serum estradiol level [2, 4]: did not change
Serum FSH ([2]; Patient 1, 250 μg once a day, in 3 days, from about 90): ~60 U/L
Serum LH level ([2]; Patient 1, 250 μg once a day, within 12 hours, from about 22): ~10 U/L
Time for serum FSH to rise again to pre-treatment levels after discontinuation ([2]; Patient 1, short-term): ≤ 48 h
Time for serum LH to rise again to pre-treatment levels after discontinuation ([2]; Patient 1, short-term): ≤ 48 h
Serum FSH level change ([2]; Patient 2, 250 μg once a day): gradual decrease
Time at which FSH reached its nadir ([2]; Patient 2, 250 μg once a day): 5 days
Serum LH change ([2]; Patient 2, 250 μg once a day, within 12 hours): abrupt decrease
Time for LH to return to pre-treatment levels after discontinuation ([2]; Patient 2, short-term): ≤ 48 h
FSH after discontinuation ([2]; Patient 2, short-term, compared with LH): rose somewhat more slowly
FSH change [2, 8]: more gradually
LH change [2, 8]: decreased abruptly
FSH after discontinuation of treatment ([2]; Patient 3, short-term): rose rapidly
LH after discontinuation of treatment ([2]; Patient 3, short-term): rose rapidly
Time after discontinuation at which flush frequency started to rise (PMP flushing [3]; [9]): 6 weeks
Daytime flush frequency (PMP flushing [3]; [10]): close to zero
Nighttime flush frequency (PMP flushing [3]; [10]): close to zero
Flush severity (scale of 0-10) (PMP flushing [3]; Patient 1, outpatient, 250 μg once a day, from about 8, day as well as night): ~4
Degree of perspiration (PMP flushing [3]; [11]): unchanged
Flush duration (PMP flushing [3]; [11]): unchanged
Daytime flush duration (PMP flushing [3]; [12]): gradually decreased
Daytime flush perspiration (PMP flushing [3]; [12]): gradually decreased
Daytime flush severity (PMP flushing [3]; [12]): gradually decreased
Daytime flushing, level at which it levelled off (PMP flushing [3]; Patient 2, outpatient, 250 μg once a day, up to third month): 10 flushes/day
Daytime flush frequency (PMP flushing [3]; Patient 2, outpatient, 250 μg once a day, within the first week, from about 18): ~8 flushes/day
Nighttime flushing (PMP flushing [3]; Patient 2, outpatient, 250 μg once a day, within two days): disappeared completely
Flushing (PMP flushing [3]; [13]): further decreased
Total daily flushing (PMP flushing [3]; [14]): 6 flushes/day
Total decrease in total daily flushing (PMP flushing [3]; [14]): about 75%
Decline of flush frequency (PMP flushing [3]; Patient 3, outpatient, 500 μg once a day, P<0.007): 79.3%
Flush frequency (mean±standard error of the mean) (PMP flushing [3]; Patient 3, outpatient, 500 μg once a day, from 9.67±1.12, P<0.007): 2.00±0.44
Time for FSH levels to rise to pretreatment levels after discontinuation (serum LH and FSH; [9]): ≤ 3 days
Time for LH levels to rise to pretreatment levels after discontinuation (serum LH and FSH; [9]): ≤ 3 days
Serum FSH (serum LH and FSH; [15]): decreased to levels similar to those observed during the in-hospital setting
Serum LH (serum LH and FSH; [15]): decreased to levels similar to those observed during the in-hospital setting
FSH (serum LH and FSH; Patient 2, outpatient, 250 μg once a day, stabilized level): around 15 U/L
Serum LH (serum LH and FSH; Patient 2, outpatient, 250 μg once a day, within a week): decreased to premenopausal levels
Serum FSH level (serum LH and FSH; [13]): further decreased
Serum LH level (serum LH and FSH; [13]): further decreased
Serum FSH nadir (serum LH and FSH; [16]): 25 U/L
Serum LH nadir (serum LH and FSH; [16]): 8 U/L
